Measurements published in the supplement of paper PMC10307832.

Compound: Cn1nnc2c(C(N)=O)ncn2c1=O [Temozolomide] + CC1(C)CCC(c2ccc(Cl)cc2)=C(CN2CCN(c3ccc(C(=O)NS(=O)(=O)c4ccc(N[C@H](CCN5CCOCC5)CSc5ccccc5)c(S(=O)(=O)C(F)(F)F)c4)cc3)CC2)C1 [Navitoclax] (partner 0.5 µM)
Assay: relative viability (nuclei count vs DMSO), 5 days (fraction); higher = more cells survive
Conditions: first compound 0.2 µM
Method in brief: (§1)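 Relative viability equals treated-well nuclei counts divided by vehicle-well nuclei counts. Counts came from 4× images of lung cancer cell lines grown in 1536-well plates for 5 days after pin-tool dosing on the day after seeding. Dosing used one drug alone or a fixed anchor-drug dose plus five library-drug doses (not always all listed) in √10 steps, and values are medians of duplicate plates.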

| Cell Line | relative viability |
| --- | --- |
| NCI-H1993 | 0.823 |
| NCI-H2009 | 1.2 |
| NCI-H2023 | 1.02 |
| NCI-H2085 | 1.2 |
| NCI-H2087 | 1.15 |
| NCI-H2126 | 0.853 |

Same assay, conditions: first compound 0.6325 µM

| Cell Line | relative viability |
| --- | --- |
| LC-2-ad | 0.437 |
| LCLC-97TM1 | 0.443 |
| LK-2 | 0.874 |
| LOU-NH91 | 0.738 |
| LU99A | 0.781 |
| LXF-289 | 0.91 |
| NCI-H23 | 0.93 |
| NCI-H322M | 1.36 |
| NCI-H441 | 0.628 |
| NCI-H460 | 1.08 |
| NCI-H520 | 1.09 |
| NCI-H596 | 0.924 |
| NCI-H647 | 1.24 |
| NCI-H838 | 1.11 |
| NCI-H1355 | 0.927 |
| NCI-H1395 | 1.14 |
| NCI-H1437 | 1.12 |

| Cell Line | relative viability |
| --- | --- |
| NCI-H1650 | 1.33 |
| NCI-H1651 | 1.01 |
| NCI-H1666 | 0.933 |
| NCI-H1734 | 0.854 |
| NCI-H1755 | 0.982 |
| NCI-H1793 | 0.358 |
| NCI-H1915 | 0.754 |
| NCI-H1944 | 1.05 |
| NCI-H1975 | 1.11 |
| NCI-H1993 | 0.893 |
| NCI-H2009 | 1.22 |
| NCI-H2023 | 1 |
| NCI-H2085 | 1.24 |
| NCI-H2087 | 1.05 |
| NCI-H2126 | 0.829 |
| NCI-H2170 | 0.478 |

Same assay, conditions: first compound 2 µM

| Cell Line | relative viability |
| --- | --- |
| LC-2-ad | 0.358 |
| LCLC-97TM1 | 0.49 |
| LK-2 | 0.851 |
| LOU-NH91 | 0.702 |
| LU99A | 0.733 |
| LXF-289 | 0.946 |
| NCI-H23 | 0.857 |
| NCI-H322M | 1.28 |
| NCI-H441 | 0.926 |
| NCI-H460 | 1.22 |
| NCI-H520 | 1.15 |
| NCI-H596 | 0.946 |
| NCI-H647 | 1.24 |
| NCI-H838 | 1.17 |
| NCI-H1355 | 0.964 |
| NCI-H1395 | 1.14 |
| NCI-H1437 | 1.13 |

| Cell Line | relative viability |
| --- | --- |
| NCI-H1650 | 1.08 |
| NCI-H1651 | 1.07 |
| NCI-H1666 | 0.764 |
| NCI-H1734 | 0.886 |
| NCI-H1755 | 1.01 |
| NCI-H1793 | 0.415 |
| NCI-H1915 | 0.684 |
| NCI-H1944 | 1.12 |
| NCI-H1975 | 1.2 |
| NCI-H1993 | 0.889 |
| NCI-H2009 | 1.12 |
| NCI-H2023 | 1.13 |
| NCI-H2085 | 1.24 |
| NCI-H2087 | 1.02 |
| NCI-H2126 | 0.83 |
| NCI-H2170 | 0.6 |

Same assay, conditions: first compound 6.325 µM

| Cell Line | relative viability |
| --- | --- |
| LC-2-ad | 0.374 |
| LCLC-97TM1 | 0.445 |
| LK-2 | 0.475 |
| LOU-NH91 | 0.596 |
| LU99A | 0.713 |
| LXF-289 | 0.937 |
| NCI-H23 | 0.86 |
| NCI-H322M | 1.21 |
| NCI-H441 | 0.542 |
| NCI-H460 | 1.22 |
| NCI-H520 | 1.12 |
| NCI-H596 | 0.977 |
| NCI-H647 | 0.73 |
| NCI-H838 | 1.19 |
| NCI-H1355 | 0.927 |
| NCI-H1395 | 1.1 |
| NCI-H1437 | 1.13 |

| Cell Line | relative viability |
| --- | --- |
| NCI-H1650 | 1.28 |
| NCI-H1651 | 0.958 |
| NCI-H1666 | 0.768 |
| NCI-H1734 | 0.811 |
| NCI-H1755 | 0.971 |
| NCI-H1793 | 0.506 |
| NCI-H1915 | 0.495 |
| NCI-H1944 | 1.04 |
| NCI-H1975 | 1.07 |
| NCI-H1993 | 0.879 |
| NCI-H2009 | 1.17 |
| NCI-H2023 | 0.985 |
| NCI-H2085 | 1.18 |
| NCI-H2087 | 0.891 |
| NCI-H2126 | 0.886 |
| NCI-H2170 | 0.534 |

Same assay, conditions: first compound 20 µM

| Cell Line | relative viability |
| --- | --- |
| LC-2-ad | 0.336 |
| LCLC-97TM1 | 0.512 |
| LK-2 | 0.35 |
| LOU-NH91 | 0.361 |
| LU99A | 0.746 |
| LXF-289 | 0.847 |
| NCI-H23 | 0.851 |
| NCI-H322M | 0.967 |
| NCI-H441 | 0.789 |
| NCI-H460 | 1.18 |
| NCI-H520 | 1.01 |
| NCI-H596 | 0.981 |
| NCI-H647 | 0.291 |
| NCI-H838 | 1.17 |
| NCI-H1355 | 0.913 |
| NCI-H1395 | 1.05 |
| NCI-H1437 | 1.17 |

| Cell Line | relative viability |
| --- | --- |
| NCI-H1650 | 0.974 |
| NCI-H1651 | 1 |
| NCI-H1666 | 0.454 |
| NCI-H1734 | 0.835 |
| NCI-H1755 | 0.727 |
| NCI-H1793 | 0.3 |
| NCI-H1915 | 0.305 |
| NCI-H1944 | 0.913 |
| NCI-H1975 | 1.13 |
| NCI-H1993 | 0.804 |
| NCI-H2009 | 1.25 |
| NCI-H2023 | 0.997 |
| NCI-H2085 | 1.06 |
| NCI-H2087 | 0.965 |
| NCI-H2126 | 0.844 |
| NCI-H2170 | 0.32 |

Compound: Cn1nnc2c(C(N)=O)ncn2c1=O [Temozolomide] + COc1cc2c(Oc3ccc(NC(=O)C4(C(=O)Nc5ccc(F)cc5)CC4)cc3F)ccnc2cc1OCCCN1CCOCC1 [Foretinib] (partner 0.25 µM)
Assay: as above
Conditions: first compound 0.2 µM
Method in brief: as §1

| Cell Line | relative viability |
| --- | --- |
| LC-2-ad | 0.838 |
| LCLC-97TM1 | 0.919 |
| LK-2 | 1.25 |
| LOU-NH91 | 0.674 |
| LU99A | 0.874 |
| LXF-289 | 0.978 |
| NCI-H23 | 1.02 |
| NCI-H441 | 1.12 |
| NCI-H460 | 0.988 |
| NCI-H520 | 0.908 |
| NCI-H596 | 0.952 |
| NCI-H647 | 1.16 |
| NCI-H838 | 1.01 |
| NCI-H1355 | 0.947 |
| NCI-H1395 | 0.865 |
| NCI-H1437 | 1.27 |
